pEC50: −log10 of the molar value.
How the values were obtained:
Metabolic stability test = assay type: in vitro ADME; settings: human liver microsomes, 0 to 30 minutes; a hydrochloride was used
Protocol: To determine the unchanged product-residual ratio of the test compound in the reaction sample, human liver microsomes and the test compound were reacted for a predetermined time (0 to 30 minutes). The unchanged product-residual ratio at a reaction time of 0 hours was considered 100%, the residual ratio after incubation was log-linear plotted with respect to the time, a regression line (y=100 e^−kt, k=slope of the line: elimination rate constant) was determined, and the metabolic clearance CLint (mL/min/kg) was calculated using the following formula.
CLint*=k (−min)×45 (mg MS protein/g liver)×21 (g liver/kg)/MS protein (mg MS protein/mL)
*: Yamazaki S.; Skaptason J.; Romero D, Vekich S.; Jones HM.; Tan W.; Wilner KD.; Koudriakova T. Drug Metab. Dispos. 2011 March; 39 (3): 383-393.

human κ opioid receptors = molecular target: T1, human κ opioid receptors (Homo sapiens, UniProt P41145); assay: Opioid receptor function test (Lance Ultra cAMP kit, agonist activity); assay type: cell-based; settings: CHO cells expressing human κ opioid receptors, 10 μM forskolin, 30 minutes
T1 construct: host or cells: CHO cells
Procedure, shortened: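 CHO cells expressing human κ opioid receptor incubated 30 min with test compound (10^−14 to 10^−7 M) and 10 μM forskolin in HSS/5 mM HEPES pH 7.4 with 0.5 mM IBMX and 0.1% SA. cAMP measured by TR-FRET (Lance Ultra) 1 h after detection reagent addition.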

T1 sequence (P41145 whole entry): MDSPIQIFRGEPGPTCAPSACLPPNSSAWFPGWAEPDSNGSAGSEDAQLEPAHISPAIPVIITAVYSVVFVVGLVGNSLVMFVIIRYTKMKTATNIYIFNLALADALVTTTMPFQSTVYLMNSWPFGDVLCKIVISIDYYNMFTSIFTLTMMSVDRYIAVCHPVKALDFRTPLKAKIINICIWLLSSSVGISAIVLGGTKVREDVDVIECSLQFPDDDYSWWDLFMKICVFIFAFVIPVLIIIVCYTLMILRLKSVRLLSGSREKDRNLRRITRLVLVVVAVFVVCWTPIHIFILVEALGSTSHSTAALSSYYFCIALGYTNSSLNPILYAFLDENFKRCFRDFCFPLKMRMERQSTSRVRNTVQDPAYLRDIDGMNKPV

Molecule	CLint scaled (Metabolic stability test) [mL/min/kg]	pEC50 (human κ opioid receptors)
O=C(Cc1ncccn1)N1CC[C@]23CCN(CC4CC4)[C@H](Cc4ccc(O)cc42)[C@]3(O)CC1 [Example 20, 1-((5aS,6R,11bR)-14-(cyclopropylmethyl)-5a,10-dihydroxy-1,2,5,5a,6,7-hexahydro-6,11b-(epiminoethano)naphtho[1,2-d]azepin-3(4H)-yl)-2-(pyrimidin-2-yl)ethan-1-one]	3.9	–
Oc1ccc2c(c1)[C@@]13CCN(CCc4nccs4)CC[C@@]1(O)[C@@H](C2)N(CC1CC1)CC3 [Example 31, (5aS,6R,11bS)-14-(cyclopropylmethyl)-3-(2-(thiazol-2-yl)ethyl)-2,3,4,5,6,7-hexahydro-6,11b-(epiminoethano)naphtho[1,2-d]azepine-5a,10(1H)-diol]	7.5	9.96
Oc1ccc2c(c1)[C@@]13CCN(CCn4cc(Br)cn4)CC[C@@]1(O)[C@@H](C2)N(CC1CC1)CC3 [Example 61, (5aS,6R,11bS)-3-(2-(4-bromo-1H-pyrazol-1-yl)ethyl)-14-(cyclopropylmethyl)-2,3,4,5,6,7-hexahydro-6,11b-(epiminoethano)naphtho[1,2-d]azepine-5a,10(1H)-diol]	26	10.55
Oc1ccc2c(c1)[C@@]13CCN(CCc4ccccc4)CC[C@@]1(O)[C@@H](C2)N(CC1CC1)CC3 [Example 90, (5aS,6R,11bS)-14-(cyclopropylmethyl)-3-phenethyl-2,3,4,5,6,7-hexahydro-6,11b-(epiminoethano)naphtho[1,2-d]azepine-5a,10(1H)-diol]	11.6	9.06
Oc1ccc2c(c1)[C@@]13CCN(CCc4ccc5ccccc5n4)CC[C@@]1(O)[C@@H](C2)N(CC1CC1)CC3 [Example 124, (5aS,6R,11bS)-14-(cyclopropylmethyl)-3-(2-(quinolin-2-yl)ethyl)-2,3,4,5,6,7-hexahydro-6,11b-(epiminoethano)naphtho[1,2-d]azepine-5a,10(1H)-diol]	14.3	10.40
O=C(Cc1ncccn1)N1CCC[C@@]2(O)[C@H]3Cc4ccc(O)cc4[C@@]2(CCN3CC2CC2)C1 [Example 139, 1-((5aS,6R,11bS)-14-(cyclopropylmethyl)-5a,10-dihydroxy-3,4,5,5a,6,7-hexahydro-6,11b-(epiminoethano)naphtho[1,2-c]azepin-2(1H)-yl)-2-(pyrimidin-2-yl)ethan-1-one]	29.7	–
Cc1cnn(CCN2CC[C@]34CCN[C@H](Cc5ccc(O)cc53)[C@]4(O)CC2)c1 [Example 176, (5aS,6R,11bR)-3-(2-(4-methyl-1H-pyrazol-1-yl)ethyl)-2,3,4,5,6,7-hexahydro-6,11b-(epiminoethano)naphtho[1,2-d]azepine-5a,10(1H)-diol]	8.2	–
Cc1cc(CCN2CC[C@]34CCN(CC5CC5)[C@H](Cc5ccc(O)cc53)[C@]4(O)CC2)ns1 [Example 177, (5aS,6R,11bS)-14-(cyclopropylmethyl)-3-(2-(5-methylisothiazol-3-yl)ethyl)-2,3,4,5,6,7-hexahydro-6,11b-(epiminoethano)naphtho[1,2-d]azepine-5a,10(1H)-diol]	9.5	10.72
Cc1cnn(C[C@@H](C)N2CC[C@]34CCN(CC5CC5)[C@H](Cc5ccc(O)cc53)[C@]4(O)CC2)c1 [Example 229, (5aS,6R,11bS)-14-(cyclopropylmethyl)-3-((R)-1-(4-methyl-1H-pyrazol-1-yl)propan-2-yl)-2,3,4,5,6,7-hexahydro-6,11b-(epiminoethano)naphtho[1,2-d]azepine-5a,10(1H)-diol]	5.1	10.60
Cc1cnn(CCN2CC[C@]34CCN(CC5CC5)[C@H](Cc5ccc(C(N)=O)cc53)[C@]4(O)CC2)c1 [Example 244, (5aS,6R,11bS)-14-(cyclopropylmethyl)-5a-hydroxy-3-(2-(4-methyl-1H-pyrazol-1-yl)ethyl)-1,2,3,4,5,5a,6,7-octahydro-6,11b-(epiminoethano)naphtho[1,2-d]azepine-10-carboxamide]	7.7	9.33
NC(=O)c1ccc2c(c1)[C@@]13CCN(C(=O)Cc4ccccn4)CC[C@@]1(O)[C@@H](C2)N(CC1CC1)CC3 [Example 247, (5aS,6R,11bR)-14-(cyclopropylmethyl)-5a-hydroxy-3-(2-(pyridin-2-yl)acetyl)-1,2,3,4,5,5a,6,7-octahydro-6,11b-(epiminoethano)naphtho[1,2-d]azepine-10-carboxamide]	4.8	–
Cc1cnn(CCN2CC[C@]34CCN(CC5CC5)[C@H](Cc5cc(C)c(O)cc53)[C@]4(O)CC2)c1 [Example 262, (5aS,6R,11bS)-14-(cyclopropylmethyl)-9-methyl-3-(2-(4-methyl-1H-pyrazol-1-yl)ethyl)-2,3,4,5,6,7-hexahydro-6,11b-(epiminoethano)naphtho[1,2-d]azepine-5a,10(1H)-diol]	5.8	10.07
Cc1cnn(CCN2CC[C@]34CCN(CC5CC5)[C@H](Cc5cc(Br)c(O)cc53)[C@]4(O)CC2)c1 [Example 263, (5aS,6R,11bS)-9-bromo-14-(cyclopropylmethyl)-3-(2-(4-methyl-1H-pyrazol-1-yl)ethyl)-2,3,4,5,6,7-hexahydro-6,11b-(epiminoethano)naphtho[1,2-d]azepine-5a,10(1H)-diol]	18	9.05
NC(=O)c1ccc2c(c1)[C@@]13CCN(C(=O)Cn4cc(C(F)(F)F)cn4)CC[C@@]1(O)[C@@H](C2)N(CC1CC1)CC3 [Example 266, (5aS,6R,11bR)-14-(cyclopropylmethyl)-5a-hydroxy-3-(2-(4-(trifluoromethyl)-1H-pyrazol-1-yl)acetyl)-1,2,3,4,5,5a,6,7-octahydro-6,11b-(epiminoethano)naphtho[1,2-d]azepine-10-carboxamide]	4.4	10.13
Cc1cnn(CCN2CC[C@]34CCN(CC5CC5)[C@H](Cc5cccc(O)c53)[C@]4(O)CC2)c1 [Example 277, (5aS,6R,11bS)-14-(cyclopropylmethyl)-3-(2-(4-methyl-1H-pyrazol-1-yl)ethyl)-2,3,4,5,6,7-hexahydro-6,11b-(epiminoethano)naphtho[1,2-d]azepine-5a,11(1H)-diol]	6.4	–
CC1C[C@@]2(O)[C@H]3Cc4ccc(O)cc4[C@]2(CCN1C(=O)Cc1ccccn1)CCN3CC1CC1 (stereo partly drawn) [Example 281, 1-((5aS,6R,11bR)-14-(cyclopropylmethyl)-5a,10-dihydroxy-4-methyl-1,2,5,5a,6,7-hexahydro-6,11b-(epiminoethano)naphtho[1,2-d]azepin-3(4H)-yl)-2-(pyridin-2-yl)ethan-1-one]	13.7	9.85
Cc1cnn(CCN2CC[C@]34CCN(CC5CC5)[C@H](Cc5cc(C(N)=O)c(O)cc53)[C@]4(O)CC2)c1 [Example 295, (5aS,6R,11bS)-14-(cyclopropylmethyl)-5a,10-dihydroxy-3-(2-(4-methyl-1H-pyrazol-1-yl)ethyl)-1,2,3,4,5,5a,6,7-octahydro-6,11b-(epiminoethano)naphtho[1,2-d]azepine-9-carboxamide]	17.2	–
Cc1cnn(CCN2CC[C@]34CCN(CC5CC5)[C@H](Cc5cc(I)c(O)cc53)[C@]4(O)CC2)c1 [Example 298, (5aS,6R,11bS)-14-(cyclopropylmethyl)-9-iodo-3-(2-(4-methyl-1H-pyrazol-1-yl)ethyl)-2,3,4,5,6,7-hexahydro-6,11b-(epiminoethano)naphtho[1,2-d]azepine-5a,10(1H)-diol]	22.5	–
O=C(Cc1ccccn1)N1CC[C@]23CCN(CC4CC4)[C@H](Cc4cc(C(F)(F)F)c(O)cc42)[C@]3(O)CC1 [Example 320, 1-((5aS,6R,11bR)-14-(cyclopropylmethyl)-5a,10-dihydroxy-9-(trifluoromethyl)-1,2,5,5a,6,7-hexahydro-6,11b-(epiminoethano)naphtho[1,2-d]azepin-3(4H)-yl)-2-(pyridin-2-yl)ethan-1-one]	22.9	–
Cc1cc2c(cc1O)[C@@]13CCN(C(=O)Cc4cccc(C(F)(F)F)n4)CC[C@@]1(O)[C@@H](C2)N(CC1CC1)CC3 [Example 322, 1-((5aS,6R,11bR)-14-(cyclopropylmethyl)-5a,10-dihydroxy-9-methyl-1,2,5,5a,6,7-hexahydro-6,11b-(epiminoethano)naphtho[1,2-d]azepin-3(4H)-yl)-2-(6-(trifluoromethyl)pyridin-2-yl)ethan-1-one]	6.6	–
NC(=O)c1ccc2c(c1O)[C@@]13CCN(C(=O)Cc4ccccn4)CC[C@@]1(O)[C@@H](C2)N(CC1CC1)CC3 [Example 353, (5aS,6R,11bR)-14-(cyclopropylmethyl)-5a,11-dihydroxy-3-(2-(pyridin-2-yl)acetyl)-1,2,3,4,5,5a,6,7-octahydro-6,11b-(epiminoethano)naphtho[1,2-d]azepine-10-carboxamide]	7.9	–
(5aS,6R,11bS)-14-(cyclopropylmethyl)-3-((1R,3R)-3-(4-methyl-1H-pyrazol-1-yl)cyclopentyl)-2,3,4,5,6,7-hexahydro-6,11b-(epiminoethano)naphtho[1,2-d]azepine-5a,10(1H)-diol and (5aS,6R,11bS)-14-(cyclopropylmethyl)-3-((1S,3S)-3-(4-methyl-1H-pyrazol-1-yl)cyclopentyl)-2,3,4,5,6,7-hexahydro-6,11b-(epiminoethano)naphtho[1,2-d]azepine-5a,10(1H)-diol [Example 237]	–	9.54

Reference: US20230087342A1, “AZEPANE DERIVATIVE” (Nippon Chemiphar Co., Ltd., priority 2019, published 2023)
